Measured values reported in US20260297042A1, “BIARYLAMIDE DERIVATIVES AND THEIR USE AS PKMYT1 INHIBITORS” (CANCER RESEARCH TECHNOLOGY LIMITED, priority 2023, published 2026).

What was measured:
OVCAR 3 cells = assay: Cancer cell line proliferation assay, ATP-based cell viability (Cell Titre Glow), OVCAR 3 (CCNE1-amplified); conditions: for Selectivity ratio KYSE30 Gl50 vs. OVCAR3 Gl50: KYSE30 (normal CCNE1) GI50 vs. OVCAR 3 (CCNE1-amplified) GI50
Experimental: (§1) Cancer cell lines with either normal (KYSE-30) or amplified CCNE1 expression (OVCAR 3 —ovarian cancer) were evaluated for their sensitivity to PKMYT1 inhibitors using Cell Titre Glow assay (Promega G7573) as endpoint to assess cell proliferation. The luminescence signal was read on a PHERAStar FS microplate reader (BMG Labtech). Data analysis was performed using Microsoft Excel® and Gl50 (concentration that achieves 50% cell growth proliferation inhibition) estimates generated with GraphPad Prism v9.

KYSE-30 cells = assay: Cancer cell line proliferation assay, ATP-based cell viability (Cell Titre Glow), KYSE-30 (normal CCNE1); conditions: Homo sapiens, KYSE-30 cells (normal CCNE1), concentration that achieves 50% cell growth proliferation inhibition, read-out: KYSE30 Gl50
Experimental: as §1

Human PKMYT1 = molecular target: T1, Human PKMYT1 (Homo sapiens, UniProt Q99640); assay: PKMYT1 biochemical ADP-Glo enzymatic assay; conditions: ADP-Glo
T1 construct: Human PKMYT1 75-362 was cloned as a TEV cleavable 6xHis fusion; 6xHis (TEV cleavable) (cleaved yes); made in house; host or cells: bacterial cells
T1 sequence (Q99640 75-362): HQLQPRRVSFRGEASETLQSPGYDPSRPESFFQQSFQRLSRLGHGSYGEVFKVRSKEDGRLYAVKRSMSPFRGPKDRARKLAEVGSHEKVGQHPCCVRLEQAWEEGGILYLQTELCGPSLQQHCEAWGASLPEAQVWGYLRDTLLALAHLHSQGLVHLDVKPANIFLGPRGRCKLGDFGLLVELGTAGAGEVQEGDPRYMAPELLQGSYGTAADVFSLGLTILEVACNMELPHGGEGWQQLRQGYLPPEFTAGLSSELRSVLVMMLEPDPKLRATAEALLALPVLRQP
In short: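 Luminescent ADP-Glo Max read-out of ADP produced by 15 nM PKMYT1 (residues 75-362, bacterial, His-tag removed) from 500 µM ATP without peptide substrate. Reaction: 50 mM HEPES pH 7.5, 10 mM MgCl2, 1 mM EGTA, 0.01% Brij-35, 60 min, 26 °C. IC50 values fitted from 10-point curves.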

WEE1 = molecular target: T2, WEE1 (Homo sapiens, UniProt P30291); assay: Selectivity versus WEE1 assay (ADP-Glo enzymatic assay); format: biochemical; conditions: for IC50: ADP-Glo; for PKMYT1 vs. WEE1 selectivity: fold difference in selectivity for PKMYT1 over WEE1
T2 construct: purchased Thermo Fisher PR7373A
T2 sequence (P30291 whole entry): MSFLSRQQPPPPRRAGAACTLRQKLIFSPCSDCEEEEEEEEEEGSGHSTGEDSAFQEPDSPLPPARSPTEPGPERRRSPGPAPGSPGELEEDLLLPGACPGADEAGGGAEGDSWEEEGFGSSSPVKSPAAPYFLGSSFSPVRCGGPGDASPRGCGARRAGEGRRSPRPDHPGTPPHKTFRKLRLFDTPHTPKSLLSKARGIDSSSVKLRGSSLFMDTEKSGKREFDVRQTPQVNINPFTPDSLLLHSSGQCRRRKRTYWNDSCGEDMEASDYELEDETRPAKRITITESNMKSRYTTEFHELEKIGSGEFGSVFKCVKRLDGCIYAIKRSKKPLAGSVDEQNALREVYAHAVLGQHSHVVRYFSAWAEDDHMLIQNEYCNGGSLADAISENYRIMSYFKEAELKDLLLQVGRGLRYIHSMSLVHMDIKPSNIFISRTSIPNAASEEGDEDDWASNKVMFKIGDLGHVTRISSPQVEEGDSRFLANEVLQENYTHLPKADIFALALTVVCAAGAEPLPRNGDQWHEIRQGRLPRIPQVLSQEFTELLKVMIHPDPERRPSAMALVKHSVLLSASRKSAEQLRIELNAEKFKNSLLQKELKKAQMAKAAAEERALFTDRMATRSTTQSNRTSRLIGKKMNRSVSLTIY
In short: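 ADP-Glo luminescence read-out after a 60 min reaction at 26° C, initiated by 30 µM ATP, with 15 nM enzyme in HEPES pH 7.5/MgCl2/EGTA/Brij-35 buffer containing 1% DMSO. Replicate IC50 values had to agree within 3-fold and fits needed r2 >0.9.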

[1] = 15 nM PKMYT1 kinase domain, 500 µM ATP, 60 minutes at 26° C., banded
[2] = 15 nM WEE1, 60 minutes at 26° C., banded
[3] = banded, ">N" = at least in this band but could be higher
[4] = PKMYT1 kinase domain 15 nM, banded values

| Structure (SMILES) | GI50 (OVCAR 3 cells; Homo sapiens, OVCAR 3 cells (CCNE1-amplified), concentration that achieves 50% cell growth proliferation inhibition, read-out: OVCAR 3 Gl50) | IC50 (Human PKMYT1; [1]) | IC50 (WEE1; [2]) | PKMYT1 vs. WEE1 selectivity (WEE1; [3]) | IC50 (Human PKMYT1; [4]) | IC50 (WEE1; WEE1 15 nM, banded values) | PKMYT1 vs. WEE1 selectivity (WEE1; banded) | Selectivity ratio KYSE30 Gl50 vs. OVCAR3 Gl50 (OVCAR 3 cells) | GI50 (KYSE-30 cells) |
| --- | --- | --- | --- | --- | --- | --- | --- | --- | --- |
| Cc1cn(C)nc1Nc1ncc(C(=O)Nc2c(C)ccc(O)c2C)s1 [BAA-123, 2-[(1,4-dimethylpyrazol-3-yl)amino]-N-(3-hydroxy-2,6-dimethyl-phenyl)thiazole-5-carboxamide] |  | < 0.05 µM | 1 to 11 µM | X (100-<1000 fold) |  |  |  | Y (>20 fold) | > 5 µM |
| Cc1ccc(O)c(C)c1NC(=O)c1cnc(Nc2nn(C)c(C)c2C)s1 [BAA-128, N-(3-hydroxy-2,6-dimethyl-phenyl)-2-[(1,4,5-trimethylpyrazol-3-yl)amino]thiazole-5-carboxamide] |  | 0.05 to 1 µM | 1 to 11 µM | X (100-<1000 fold) |  |  |  | Y (>20 fold) | > 5 µM |
| Cc1ccc(O)c(C)c1NC(=O)c1cnc(Nc2cc(C)n(C3CCCC3)n2)s1 [BAA-232, 2-((1-cyclopentyl-5-methyl-1H-pyrazol-3-yl)amino)-N-(3-hydroxy-2,6-dimethylphenyl)thiazole-5-carboxamide] |  | < 0.05 µM | 1 to 11 µM | W (10-<100 fold) |  |  |  | Y (>20 fold) | > 5 µM |
| Cc1ccc(O)c(C)c1NC(=O)c1cnc(Nc2cc(C)n(C(C)C)n2)s1 [BAA-233, N-(3-hydroxy-2,6-dimethylphenyl)-2-((1-isopropyl-5-methyl-1H-pyrazol-3-yl)amino)thiazole-5-carboxamide] |  | < 0.05 µM | 0.05 to 1 µM | W (10-<100 fold) |  |  |  | Y (>20 fold) | > 5 µM |
| Cc1ccc(O)c(C)c1NC(=O)c1cnc(Nc2cccc(N3CCC(N)CC3)n2)s1 [BAA-274, 2-((6-(4-aminopiperidin-1-yl)pyridin-2-yl)amino)-N-(3-hydroxy-2,6-dimethylphenyl)thiazole-5-carboxamide] |  | < 0.05 µM | 1 to 11 µM | W (10-<100 fold) |  |  |  | Y (>20 fold) | 0.5 to 5 µM |
| Cc1ccc(O)c(C)c1NC(=O)c1cnc(Nc2cccc(-c3cc(F)cc(F)c3)n2)s1 [BAA-315, 2-((6-(3,5-difluorophenyl)pyridin-2-yl)amino)-N-(3-hydroxy-2,6-dimethylphenyl)thiazole-5-carboxamide] |  | < 0.05 µM | > 11 µM | Y (1000-5000 fold) |  |  |  | Y (>20 fold) | 0.5 to 5 µM |
| Cc1ccc(O)c(C)c1NC(=O)c1cnc(Nc2cc(C(F)(F)F)nc(NCCC(C)(C)C)n2)s1 [BAA-322, 2-((2-((3,3-dimethylbutyl)amino)-6-(trifluoromethyl)pyrimidin-4-yl)amino)-N-(3-hydroxy-2,6-dimethylphenyl)thiazole-5-carboxamide] |  | 0.05 to 1 µM | > 11 µM | X (100-<1000 fold) |  |  |  | Y (>20 fold) | 0.5 to 5 µM |
| Cc1ccc(NC(=O)OC(C)(C)C)nc1Nc1ncc(C(=O)Nc2c(C)ccc(O)c2C)s1 [BAA-329, tert-butyl (6-((5-((3-hydroxy-2,6-dimethylphenyl)carbamoyl)thiazol-2-yl)amino)-5-methylpyridin-2-yl)carbamate] |  | 0.05 to 1 µM | > 11 µM | Y (1000-5000 fold) |  |  |  | X (3-20 fold) | 0.5 to 5 µM |
| Cc1c(O)cc(Br)c(C)c1NC(=O)c1cnc(Nc2nn(C3CCS(=O)(=O)C3)c(C)c2Br)s1 (stereo not shown) [BAA-557, 2-((4-Bromo-1-(1,1-dioxidotetrahydrothiophen-3-yl)-5-methyl-1H-pyrazol-3-yl)amino)-N-(3-bromo-5-hydroxy-2.6-dimethylphenyl)thiazole-5-carboxamide] |  |  |  |  | 1 to 11 µM |  |  | Y (>20 fold) | > 5 µM |
| Cc1ccc(O)c(C)c1NC(=O)c1cnc(Nc2n[nH]cc2Br)s1 [BAA-579, 2-((4-Bromo-1H-pyrazol-3-yl)amino)-N-(3-hydroxy-2,6-dimethylphenyl)thiazole-5-carboxamide] |  |  |  |  | < 0.05 µM | 1 to 11 µM | X (100-<1000 fold) |  |  |
| CCN(CC)C(=O)Cn1cc(C)c(Nc2ncc(C(=O)Nc3c(C)cc(Br)c(O)c3C)s2)n1 [BAA-608, N-(4-bromo-3-hydroxy-2,6-dimethylphenyl)-2-((1-(2-(diethylamino)-2-oxoethyl)-4-methyl-1H-pyrazol-3-yl)amino)thiazole-5-carboxamide] |  |  |  |  | 0.05 to 1 µM | > 11 µM | X (100-<1000 fold) |  |  |

The next lines start with results.

| GI50 (OVCAR 3 cells; Homo sapiens, OVCAR 3 cells (CCNE1-amplified), concentration that achieves 50% cell growth proliferation inhibition, read-out: OVCAR 3 Gl50) | IC50 (Human PKMYT1; [1]) | IC50 (WEE1; [2]) | PKMYT1 vs. WEE1 selectivity (WEE1; [3]) | IC50 (Human PKMYT1; [4]) | IC50 (WEE1; WEE1 15 nM, banded values) | PKMYT1 vs. WEE1 selectivity (WEE1; banded) | Structure (SMILES) | Selectivity ratio KYSE30 Gl50 vs. OVCAR3 Gl50 (OVCAR 3 cells) | GI50 (KYSE-30 cells) |
| --- | --- | --- | --- | --- | --- | --- | --- | --- | --- |
| 0.5 to 5 µM | < 0.05 µM | 1 to 11 µM | W (10-<100 fold) |  |  |  | Cc1ccc(O)c(C)c1NC(=O)c1cnc(Nc2ccn(C3CCC3)n2)s1 [BAA-013, 2-[(1-cyclobutylpyrazol-3-yl)amino]-N-(3-hydroxy-2,6-dimethyl-phenyl)thiazole-5-carboxamide] | X (3-20 fold) | > 5 µM |
|  | < 0.05 µM | 1 to 11 µM | W (10-<100 fold) |  |  |  | Cc1ccc(O)c(C)c1NC(=O)c1cnc(Nc2ccn(CC(C)C)n2)s1 [BAA-016, N-(3-hydroxy-2,6-dimethyl-phenyl)-2-[(1-isobutylpyrazol-3-yl)amino]thiazole-5-carboxamide] | X (3-20 fold) | 0.5 to 5 µM |
|  | < 0.05 µM | 1 to 11 µM | X (100-<1000 fold) |  |  |  | Cc1ccc(O)c(C)c1NC(=O)c1cnc(Nc2ccn(CC(C)(C)O)n2)s1 [BAA-038] | Y (>20 fold) | > 5 µM |
|  | < 0.05 µM | 1 to 11 µM | W (10-<100 fold) |  |  |  | Cc1ccc(O)c(C)c1NC(=O)c1cnc(Nc2cc(C)n(CC(C)C)n2)s1 [BAA-237, N-(3-hydroxy-2,6-dimethylphenyl)-2-((1-isobutyl-5-methyl-1H-pyrazol-3-yl)amino)thiazole-5-carboxamide] | Y (>20 fold) | 0.5 to 5 µM |
|  | 0.05 to 1 µM | > 11 µM | X (100-<1000 fold) |  |  |  | Cc1ccc(O)c(C)c1NC(=O)c1cnc(Nc2cc(-c3ccc(F)cc3)ccn2)s1 [BAA-294, 2-((4-(4-fluorophenyl)pyridin-2-yl)amino)-N-(3-hydroxy-2,6-dimethylphenyl)thiazole-5-carboxamide] | Y (>20 fold) | > 5 µM |
|  | 0.05 to 1 µM | > 11 µM | X (100-<1000 fold) |  |  |  | Cc1ccc(O)c(C)c1NC(=O)c1cnc(Nc2cccc(-c3ccc(F)cc3)n2)s1 [BAA-306, 2-((6-(4-fluorophenyl)pyridin-2-yl)amino)-N-(3-hydroxy-2,6-dimethylphenyl)thiazole-5-carboxamide] | X (3-20 fold) | 0.5 to 5 µM |
|  | 0.05 to 1 µM | > 11 µM | Y (1000-5000 fold) |  |  |  | Cc1cc(Nc2ncc(C(=O)Nc3c(C)ccc(O)c3C)s2)nc(-c2ccc(F)cc2)n1 [BAA-307, 2-((2-(4-fluorophenyl)-6-methylpyrimidin-4-yl)amino)-N-(3-hydroxy-2,6-dimethylphenyl)thiazole-5-carboxamide] | Y (>20 fold) | 0.5 to 5 µM |
|  |  |  |  | 0.05 to 1 µM | > 11 µM | X (100-<1000 fold) | Cc1ccc(O)c(C)c1NC(=O)c1cnc(Nc2nccc3ccncc23)s1 [BAA-602, 2-((2,7-naphthyridin-1-yl)amino)-N-(3-hydroxy-2,6-dimethylphenyl)thiazole-5-carboxamide] |  |  |
|  |  |  |  | 0.05 to 1 µM | > 11 µM | X (100-<1000 fold) | Cc1ccc(O)c(C)c1NC(=O)c1cnc(Nc2nccc3ncccc23)s1 [BAA-603, 2-((1,6-naphthyridin-5-yl)amino)-N-(3-hydroxy-2,6-dimethylphenyl)thiazole-5-carboxamide] |  |  |
